For experiment [1], the target named is T1, RET(KD: 658-1114 G810R) (Homo sapiens, UniProt P07949, G810R).
T1 construct: 658-1114; expressed in transfected cells; host or cells: 293T.165 (293T cells, generated in-house)
T1 sequence (P07949 658-1114 G810R): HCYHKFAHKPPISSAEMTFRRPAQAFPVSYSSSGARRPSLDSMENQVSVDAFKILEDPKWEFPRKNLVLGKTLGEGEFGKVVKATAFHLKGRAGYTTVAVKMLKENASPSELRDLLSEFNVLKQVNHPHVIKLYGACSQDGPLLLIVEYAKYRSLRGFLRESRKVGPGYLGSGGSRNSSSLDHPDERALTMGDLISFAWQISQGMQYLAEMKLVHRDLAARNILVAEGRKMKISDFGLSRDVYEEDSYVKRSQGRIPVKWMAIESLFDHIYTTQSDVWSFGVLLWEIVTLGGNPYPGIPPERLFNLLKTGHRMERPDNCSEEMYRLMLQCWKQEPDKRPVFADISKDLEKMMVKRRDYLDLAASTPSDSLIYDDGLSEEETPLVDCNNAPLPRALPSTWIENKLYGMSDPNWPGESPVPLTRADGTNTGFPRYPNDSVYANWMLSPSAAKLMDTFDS
The experiment is described as follows: HiBiT-Degradation, RET G810R degradation assay (Nano-Glo HiBiT Lytic), 293T.165 cells. Format: cell-based. The settings on record: for Emax / DC50: 6.0 hours. Summed up:
(§1)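 Degradation after 6 h compound exposure (top 10 μM, 11 half-log points, duplicates) measured by Nano-Glo HiBiT lytic luminescence. Cells: 293T.144 carrying wild-type and 293T.165 carrying G810R HiBiT-RET kinase domain; curves yield DC50 and Emax.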
A general note: With HiBiT, luminescence reflects the tagged protein that the partner subunit can reach.

Experiment [2] concerns the target T2, RET (658-1114) (Homo sapiens, UniProt P07949).
T2 construct: 658-1114; expressed in transfected cells; host or cells: 293T.144 (293T cells, generated in-house)
T2 sequence (P07949 658-1114): T1 sequence (P07949 658-1114 G810R) with R153G
The experiment is described as follows: HiBiT-Degradation, RET wild-type degradation assay (Nano-Glo HiBiT Lytic), 293T.144 cells. Format: cell-based. Particulars: for DC50 / Emax: 6.0 hours. Summed up: as §1

Setting [3] is: % remaining protein, read-out: 293T.165 RET(KD: 658-1114 G810R) 6.0 hours (Emax).
Where [4] appears, read: half-maximal degradation concentration, read-out: 293T.165 RET(KD: 658-1114 G810R) 6.0 hours (DC50).
The mark [5] stands for this setting: HiBiT-Degradation, read-out: 293T.165 RET(KD: 658-1114 G810R) 6.0 hours (DC50).
Setting [6] is: HiBiT-Degradation, read-out: 293T.144 RET (658-1114) 6.0 hours (DC50).
The mark [7] stands for this setting: HiBiT-Degradation, read-out: 293T.144 RET (658-1114) 6.0 hours (Emax).
[8] abbreviates: % remaining protein, read-out: 293T.144 RET (658-1114) 6.0 hours (Emax).
Setting [9] is: half-maximal degradation concentration, read-out: 293T.144 RET (658-1114) 6.0 hours (DC50).
Where [10] appears, read: RET G810R, read-out: HiBiT-Degradation 293T.165 RET(KD: 658-1114 G810R) 6.0 hours (DC50).
Where [11] appears, read: RET G810R, read-out: HiBiT-Degradation 293T.165 RET(KD: 658-1114 G810R) 6.0 hours (Emax).
Setting [12] is: RET wild-type, read-out: HiBiT-Degradation 293T.144 RET (658-1114) 6.0 hours (DC50).
The mark [13] stands for this setting: RET wild-type, read-out: HiBiT-Degradation 293T.144 RET (658-1114) 6.0 hours (Emax).

The Emax is the size of the effect at its maximum, as opposed to the concentration needed. For orientation: DC50 means the midpoint of the concentration-degradation curve.

Changes are numbered by the printed parent chain. Like-named read-outs stand apart in the source and are kept apart here.

For the molecule `CCC1(C(=O)NC(C)C)CCN(c2ccc(-c3nc(-c4cnn(C5CCN(C(=O)CN6C7CCC6CC(c6ccc(NC8CCC(=O)NC8=O)cc6)C7)CC5)c4)cn4ncc(C#N)c34)cn2)CC1` (centres unmarked) [Compound 9, 1-[5-[3-cyano-6-[1-[1-[2-[3-[4-[(2,6-dioxo-3-piperidyl)amino]phenyl]-8-azabicyclo[3.2.1]octan-8-yl]acetyl]-4-piperidyl]pyrazol-4-yl]pyrazolo[1,5-a]pyrazin-4-yl]-2-pyridyl]-4-ethyl-N-isopropyl-piperidine-4-carboxamide], the Emax in experiment [1] (setting [3]) and in experiment [2] (setting [7]) was below 30% throughout. Further, the DC50 in experiment [1] (setting [4]) is below 100 nM; in experiment [1] (setting [5]), below 100 nM; in experiment [2] (setting [6]) it was below 50 nM. Also, in experiment [1] (HiBiT-Degradation), the “293T.165 RET(KD: 658-1114 G810R) 6.0 hours (Emax)” value is given as “++++ (< 30% = ++++)”. Besides, the “293T.165 RET(KD: 658-1114 G810R) 6.0 hours (IP) [nM]” value in experiment [1] (HiBiT-Degradation) is “++++ (< 50 nM = ++++)”. The “293T.144 RET (658-1114) 6.0 hours (IP) [nM]” value in experiment [2] (HiBiT-Degradation) was “++++ (< 50 nM = ++++)”.
Consider `CCC1(C(=O)NC(C)C)CCN(c2ccc(-c3nc(-c4ccc(C5CCN(C(=O)CN6CC(c7ccc(NC8CCC(=O)NC8=O)cc7F)C6)CC5)cc4)cn4ncc(C#N)c34)cn2)CC1` (centres unmarked) [Compound 174, 1-[5-[3-cyano-6-[4-[1-[2-[3-[4-[(2,6-dioxo-3-piperidyl)amino]-2-fluoro-phenyl]azetidin-1-yl]acetyl]-4-piperidyl]phenyl]pyrazolo[1,5-a]pyrazin-4-yl]-2-pyridyl]-4-ethyl-N-isopropyl-piperidine-4-carboxamide], for which, in experiment [1], the “293T.165 RET(KD: 658-1114 G810R) 6.0 hours (IP) [nM]” value was “++++ (<50 nM = ++++)”. Also, the Emax in experiment [1] (setting [3]) was below 50%; in experiment [2] (setting [8]), below 30%. The DC50 in experiment [1] (setting [4]) was below 100 nM; in experiment [2] (setting [9]), below 50 nM. In experiment [2], the “293T.144 RET (658-1114) 6.0 hours (IP) [nM]” value is on record as “++++ (<50 nM = ++++)”.
`N#Cc1cnn2cc(-c3ccc(N4CCN(C(=O)CN5CCC(c6ccc(NC7CCC(=O)NC7=O)cc6)CC5)CC4)cc3)cc(-c3ccc(N4CCN(C(=O)Cc5ccc(F)cn5)CC4)nc3)c12` (centres unmarked) [Compound 74, 6-[4-[4-[2-[4-[4-[(2,6-dioxo-3-piperidyl)amino]phenyl]-1-piperidyl]acetyl]piperazin-1-yl]phenyl]-4-[6-[4-[2-(5-fluoro-2-pyridyl)acetyl]piperazin-1-yl]-3-pyridyl]pyrazolo[1,5-a]pyridine-3-carbonitrile]: the Emax in experiment [1] (setting [3]), in experiment [1] (setting [11]) and in experiment [2] (setting [13]) was below 30% each time. The DC50 in experiment [1] (setting [4]), in experiment [1] (setting [10]) and in experiment [2] (setting [12]) was below 50 nM each time. In addition, the “HiBiT-Degradation 293T.165 RET(KD: 658-1114 G810R) 6.0 hours (IP) [nM]” value in experiment [1] (RET G810R) is listed as “++++ (< 50 nM = ++++)”. Besides, the “HiBiT-Degradation 293T.144 RET (658-1114) 6.0 hours (IP) [nM]” value in experiment [2] (RET wild-type) was “++++ (< 50 nM = ++++)”.
As to `CCC1(C(=O)NC2CCC2)CCN(c2ccc(-c3nc(-c4cnn([C@H]5CC[C@H](N6CCC(c7ccc8c(c7)CCN8[C@@H]7CCC(=O)NC7=O)CC6)CC5)c4)cn4ncc(C#N)c34)cn2)CC1` (single isomer, unassigned) [Compound 129], the “293T.165 RET(KD: 658-1114 G810R) 6.0 hours (IP) [nM]” value in experiment [1] is recorded as “++++ (<50 nM = ++++)”. In addition, the Emax in experiment [1] (setting [3]) and in experiment [2] (setting [8]) was below 30% in each case. In addition, the DC50 in experiment [1] (setting [4]) and in experiment [2] (setting [9]) was below 50 nM each time. The “293T.144 RET (658-1114) 6.0 hours (IP) [nM]” value in experiment [2] is “++++ (<50 nM = ++++)”.
On to `N#Cc1cnn2cc(-c3cnn(C4CCN(C(=O)CC5(O)CCN(c6ccc(NC7CCC(=O)NC7=O)cc6F)CC5)CC4)c3)nc(-c3ccc(N4CCCN(Cc5ccccc5)CC4)nc3)c12` (centres unmarked) [Compound 108, 4-[6-(4-benzyl-1,4-diazepan-1-yl)-3-pyridyl]-6-[1-[1-[2-[1-[4-[(2,6-dioxo-3-piperidyl)amino]-2-fluoro-phenyl]-4-hydroxy-4-piperidyl]acetyl]-4-piperidyl]pyrazol-4-yl]pyrazolo[1,5-a]pyrazine-3-carbonitrile], for which, in experiment [1], the “293T.165 RET(KD: 658-1114 G810R) 6.0 hours (IP) [nM]” value is reported as “++++ (<50 nM = ++++)”. Moreover, the Emax in experiment [1] (setting [3]) and in experiment [2] (setting [8]) was below 30% in each case. Also, the DC50 in experiment [1] (setting [4]) and in experiment [2] (setting [9]) was below 50 nM throughout. Further, the “293T.144 RET (658-1114) 6.0 hours (IP) [nM]” value in experiment [2] was “++++ (<50 nM = ++++)”.
`CCC1(C(=O)NC(C)C)CCN(c2ccc(-c3cc(-c4cnn([C@H]5CC[C@@H](N6CCC(c7ccc(NC8CCC(=O)NC8=O)cc7F)CC6)CC5)c4)cn4ncc(C#N)c34)cn2)CC1` (some centres unmarked) [Compound 88, 1-(5-(3-cyano-6-(1-((1s, 4s)-4-(4-(4-((2,6-dioxopiperidin-3-yl)amino)-2-fluorophenyl)piperidin-1-yl)cyclohexyl)-1H-pyrazol-4-yl)pyrazolo[1,5-a]pyridin-4-yl)pyridin-2-yl)-4-ethyl-N-isopropylpiperidine-4-carboxamide]: the maximal effect (Emax) was below 50% in experiment [1] (setting [3]), below 50% in experiment [1] (setting [11]) and below 30% in experiment [2] (setting [13]). For the same molecule, the DC50 was below 1000 nM in experiment [1] (setting [4]), below 1000 nM in experiment [1] (setting [10]) and below 50 nM in experiment [2] (setting [12]). The “HiBiT-Degradation 293T.165 RET(KD: 658-1114 G810R) 6.0 hours (IP) [nM]” value in experiment [1] (RET G810R) was “++++ (< 50 nM = ++++)”. In addition, the “HiBiT-Degradation 293T.144 RET (658-1114) 6.0 hours (IP) [nM]” value in experiment [2] (RET wild-type) is reported as “++++ (< 50 nM = ++++)”.
Take `COc1ccc(CN2C3CC2CN(c2ccc(-c4nc(-c5cnn([C@H]6CC[C@@H](N7CCC(c8cc9c(cc8F)c(N8CCC(=O)NC8=O)nn9C)C(F)(F)C7)CC6)c5)cn5ncc(C#N)c45)cn2)C3)cn1` (relative stereo) [Compound 200, 6-(1-((1s, 4s)-4-(4-(3-(2,4-Dioxotetrahydropyrimidin-1(2H)-yl)-5-fluoro-1-methyl-1H-indazol-6-yl)-3,3-difluoropiperidin-1-yl)cyclohexyl)-1H-pyrazol-4-yl)-4-(6-(6-((6-methoxypyridin-3-yl)methyl)-3,6-diazabicyclo[3.1.1]heptan-3-yl)pyridin-3-yl)pyrazolo[1,5-a]pyrazine-3-carbonitrile]: in experiment [1], the “293T.165 RET(KD: 658-1114 G810R) 6.0 hours (IP) [nM]” value was “++++ (<50 nM = ++++)”. Also, the Emax in experiment [1] (setting [3]) is below 50%; in experiment [2] (setting [8]), below 30%. Besides, the DC50 in experiment [1] (setting [4]) and in experiment [2] (setting [9]) was below 50 nM each time. The “293T.144 RET (658-1114) 6.0 hours (IP) [nM]” value in experiment [2] is recorded as “++++ (<50 nM = ++++)”.
As for `N#Cc1cnn2cc(-c3ccc(N4CCN(C(=O)CN5CCC(c6ccc(NC7CCC(=O)NC7=O)cc6)CC5)CC4)cc3)cc(-c3ccc(N4CC5CC5C4)nc3)c12` (centres unmarked) [Compound 17, 4-[6-(3-azabicyclo[3.1.0]hexan-3-yl)-3-pyridyl]-6-[4-[4-[2-[4-[4-[(2,6-dioxo-3-piperidyl)amino]phenyl]-1-piperidyl]acetyl]piperazin-1-yl]phenyl]pyrazolo[1,5-a]pyridine-3-carbonitrile], the maximum response (Emax) in experiment [1] (setting [3]) and in experiment [2] (setting [7]) was below 30% in each case. Moreover, the DC50 in experiment [1] (setting [4]), in experiment [1] (setting [5]) and in experiment [2] (setting [6]) was below 50 nM throughout. Besides, the “293T.165 RET(KD: 658-1114 G810R) 6.0 hours (Emax)” value in experiment [1] (HiBiT-Degradation) is on record as “++++ (< 30% = ++++)”. Also, in experiment [1] (HiBiT-Degradation), the “293T.165 RET(KD: 658-1114 G810R) 6.0 hours (IP) [nM]” value is recorded as “++++ (< 50 nM = ++++)”. Besides, the “293T.144 RET (658-1114) 6.0 hours (IP) [nM]” value in experiment [2] (HiBiT-Degradation) is “++++ (< 50 nM = ++++)”.

The values are drawn from patent US12661410B2, “Compounds for targeted degradation of RET” (C4 Therapeutics, Inc., priority 2020, dated 2026).
